From PubChem BioAssay AID256 (DTP/NCI, 2004)
Toxic doses and inconclusive results are not listed. The calls were made as follows: active = survival T/C of 150% or more; inactive = T/C below 125% in these data.

System: CD2F1 mice, L1210 leukemia ip, survival T/C
Assay: NCI In Vivo Anticancer Drug Screen. Data for tumor model L1210 Leukemia (intraperitoneal) in CD2F1 (CDF1) mice
Details: higher = longer survival
Protocol: The antitumor activity of compounds was measured in mice bearing transplantable tumors. Survival or tumor size were measured and the results are expressed as the measurement made in the treated group (T) divided by the measurement made in the vehicle treated control group (C). The tumor model used in this assay is L1210 Leukemia (intraperitoneal) in CD2F1 (CDF1) mice

[1] = endpoint: mean survival time, dose: 100.0 mg/kg/injection, schedule: Q01DX001 (ip), vehicle: saline with Tween-80
[2] = endpoint: mean survival time, dose: 200.0 mg/kg/injection, schedule: Q01DX001 (ip), vehicle: saline with Tween-80
[3] = endpoint: mean survival time, dose: 100.0 mg/kg/injection, schedule: Q01DX009 (ip), vehicle: saline with Tween-80
[4] = endpoint: mean survival time, dose: 100.0 mg/kg/injection, schedule: Q04DX003 (ip), vehicle: saline with Tween-80
[5] = endpoint: mean survival time, dose: 200.0 mg/kg/injection, schedule: Q01DX009 (ip), vehicle: saline with Tween-80
[6] = endpoint: mean survival time, dose: 200.0 mg/kg/injection, schedule: Q04DX003 (ip), vehicle: saline with Tween-80
[7] = endpoint: mean survival time, dose: 400.0 mg/kg/injection, schedule: Q01DX009 (ip), vehicle: saline with Tween-80
[8] = endpoint: mean survival time, dose: 400.0 mg/kg/injection, schedule: Q04DX003 (ip), vehicle: saline with Tween-80
[9] = endpoint: mean survival time, dose: 100.0 mg/kg/injection, schedule: Q01DX001 (ip), vehicle: Klucel (hydroxypropylcellulose) (HPC)
[10] = endpoint: mean survival time, dose: 200.0 mg/kg/injection, schedule: Q01DX001 (ip), vehicle: Klucel (hydroxypropylcellulose) (HPC)
[11] = endpoint: mean survival time, dose: 400.0 mg/kg/injection, schedule: Q01DX001 (ip), vehicle: Klucel (hydroxypropylcellulose) (HPC)
[12] = endpoint: mean survival time, dose: 50.0 mg/kg/injection, schedule: Q01DX009 (ip), vehicle: saline with Tween-80
[13] = endpoint: mean survival time, dose: 100.0 mg/kg/injection, schedule: Q04DX003 (ip), vehicle: saline
[14] = endpoint: mean survival time, dose: 200.0 mg/kg/injection, schedule: Q04DX003 (ip), vehicle: saline
[15] = endpoint: mean survival time, dose: 400.0 mg/kg/injection, schedule: Q04DX003 (ip), vehicle: saline

Measured: T/C

COC(=O)/C=N/Nc1ccc(C)cc1
inactive: endpoint: mean survival time, dose: 100.0 mg/kg/injection, schedule: Q01DX009 (ip), vehicle: water 86 % of control | endpoint: mean survival time, dose: 200.0 mg/kg/injection, schedule: Q01DX009 (ip), vehicle: water 88 % of control | endpoint: mean survival time, dose: 400.0 mg/kg/injection, schedule: Q01DX009 (ip), vehicle: water 86 % of control

[NH-]CC[NH-].[NH-]CC[NH-].[NH-]CC[NH-].[Ni+2].[O-][Cl+3]([O-])([O-])O
inactive: endpoint: mean survival time, dose: 25.0 mg/kg/injection, schedule: Q04DX002 (ip), vehicle: saline with Tween-80 117 % of control | endpoint: mean survival time, dose: 50.0 mg/kg/injection, schedule: Q04DX002 (ip), vehicle: saline with Tween-80 92 % of control

O=[N+]([O-])c1ccc(N/N=C(\COc2ccccc2)c2ccccc2)c([N+](=O)[O-])c1
inactive: endpoint: mean survival time, dose: 37.5 mg/kg/injection, schedule: Q01DX001 (ip), vehicle: saline with Tween-80 98 % of control | endpoint: mean survival time, dose: 75.0 mg/kg/injection, schedule: Q01DX001 (ip), vehicle: saline with Tween-80 97 % of control | endpoint: mean survival time, dose: 150.0 mg/kg/injection, schedule: Q01DX001 (ip), vehicle: saline with Tween-80 97 % of control

CCOc1ccc(-n2c(O)c(N=Nc3ccccc3OC)c(=O)n(-c3ccccc3)c2=S)cc1
inactive: [1] 93 % of control | [2] 91 % of control

N#Cc1n[nH]c(C2OC(CO)C(O)C2O)c1O (stereo not drawn)
inactive: endpoint: median survival time, dose: 9.38 mg/kg/injection, schedule: Q01DX005 (ip), vehicle: water 104 % of control | endpoint: median survival time, dose: 18.75 mg/kg/injection, schedule: Q01DX005 (ip), vehicle: water 106 % of control | endpoint: median survival time, dose: 39.5 mg/kg/injection, schedule: Q01DX005 (ip), vehicle: water 109 % of control | endpoint: median survival time, dose: 79.0 mg/kg/injection, schedule: Q01DX005 (ip), vehicle: water 109 % of control | endpoint: median survival time, dose: 158.0 mg/kg/injection, schedule: Q01DX005 (ip), vehicle: water 109 % of control

O=C1C2C(C(=O)N1c1ccccc1)C1c3ccccc3C2C2CCCCN21 (stereo not drawn)
inactive: endpoint: mean survival time, dose: 12.5 mg/kg/injection, schedule: Q04DX003 (ip), vehicle: Klucel (hydroxypropylcellulose) (HPC) 95 % of control | endpoint: mean survival time, dose: 25.0 mg/kg/injection, schedule: Q04DX003 (ip), vehicle: Klucel (hydroxypropylcellulose) (HPC) 101 % of control | endpoint: mean survival time, dose: 50.0 mg/kg/injection, schedule: Q04DX003 (ip), vehicle: Klucel (hydroxypropylcellulose) (HPC) 93 % of control

CC1OC(n2cc(Br)c(=O)[nH]c2=O)C(O)C(O)C1O (stereo not drawn)
inactive: endpoint: mean survival time, dose: 12.5 mg/kg/injection, schedule: Q01DX005 (ip), vehicle: water 99 % of control | endpoint: mean survival time, dose: 25.0 mg/kg/injection, schedule: Q01DX005 (ip), vehicle: water 101 % of control | endpoint: mean survival time, dose: 50.0 mg/kg/injection, schedule: Q01DX005 (ip), vehicle: water 105 % of control | endpoint: mean survival time, dose: 100.0 mg/kg/injection, schedule: Q01DX005 (ip), vehicle: water 100 % of control | endpoint: mean survival time, dose: 200.0 mg/kg/injection, schedule: Q01DX005 (ip), vehicle: water 99 % of control

CC(=O)c1ccccc1OC(=O)c1ccccc1
inactive: [3] 100 % of control | [4] 107 % of control | [5] 91 % of control | [6] 101 % of control | [7] 93 % of control | [8] 104 % of control

CCOC(=O)CCC1(CCC(=O)OCC)c2ccccc2-c2ccccc21
inactive: [9] 96 % of control | [10] 104 % of control | [11] 104 % of control

CCOC(C[N+](C)(C)C)OCC
inactive: [12] 100 % of control | [3] 94 % of control

c1ccc2c3c(ccc2c1)-c1oncc1CC3
inactive: [13] 98 % of control | [14] 91 % of control | [15] 102 % of control

c1ccc([As]2[As](c3ccccc3)[As](c3ccccc3)[As]2c2ccccc2)cc1 (stereo not drawn)
inactive: endpoint: mean survival time, dose: 5.0 mg/kg/injection, schedule: Q01DX001 (ip), vehicle: saline 101 % of control | endpoint: mean survival time, dose: 10.0 mg/kg/injection, schedule: Q01DX001 (ip), vehicle: saline 108 % of control | endpoint: mean survival time, dose: 20.0 mg/kg/injection, schedule: Q01DX001 (ip), vehicle: saline 111 % of control | endpoint: mean survival time, dose: 40.0 mg/kg/injection, schedule: Q01DX001 (ip), vehicle: saline 113 % of control | endpoint: mean survival time, dose: 80.0 mg/kg/injection, schedule: Q01DX001 (ip), vehicle: saline 119 % of control

CC(=O)Nc1ccc(S(=O)(=O)/N=C2\C=CC(=O)c3ccccc32)cc1
inactive: [12] 98 % of control | [1] 104 % of control | [3] 100 % of control | [2] 111 % of control

NC(=O)C(F)(F)F
inactive: endpoint: mean survival time, dose: 100.0 mg/kg/injection, schedule: Q01DX009 (ip), vehicle: saline 98 % of control | endpoint: mean survival time, dose: 200.0 mg/kg/injection, schedule: Q01DX009 (ip), vehicle: saline 98 % of control | endpoint: mean survival time, dose: 400.0 mg/kg/injection, schedule: Q01DX009 (ip), vehicle: saline 100 % of control

CCCCNCCO
inactive: endpoint: mean survival time, dose: 100.0 mg/kg/injection, schedule: Q01DX001 (ip), vehicle: saline 104 % of control

CC(=O)Nc1cccc(/C=C/C=C/c2cccc([N+](=O)[O-])c2)c1
inactive: [9] 103 % of control | [10] 97 % of control | [11] 90 % of control

CCOC(=O)c1cc([N+](=O)[O-])c[nH]1
inactive: endpoint: median survival time, dose: 25.0 mg/kg/injection, schedule: Q01DX009 (ip), vehicle: Klucel (hydroxypropylcellulose) (HPC) 101 % of control | endpoint: median survival time, dose: 50.0 mg/kg/injection, schedule: Q01DX009 (ip), vehicle: Klucel (hydroxypropylcellulose) (HPC) 98 % of control | endpoint: median survival time, dose: 100.0 mg/kg/injection, schedule: Q01DX009 (ip), vehicle: Klucel (hydroxypropylcellulose) (HPC) 97 % of control | endpoint: median survival time, dose: 200.0 mg/kg/injection, schedule: Q01DX009 (ip), vehicle: Klucel (hydroxypropylcellulose) (HPC) 98 % of control

CNC
inactive: endpoint: mean survival time, dose: 100.0 mg/kg/injection, schedule: Q04DX002 (ip), vehicle: saline 86 % of control

COc1cc2cc(c1Cl)N(C)C(=O)CC(OC(=O)C(C)N(C)C(=O)C(C)C)C1(C)OC1C(C)C1CC(O)(NC(=O)O1)C(OC)/C=C/C=C(C)C2 (stereo not drawn)
inactive: endpoint: mean survival time, dose: 1.2 micrograms/kg/injection, schedule: Q01DX009 (ip), vehicle: saline + alcohol 109 % of control | endpoint: mean survival time, dose: 2.5 micrograms/kg/injection, schedule: Q01DX009 (ip), vehicle: saline + alcohol 113 % of control | endpoint: mean survival time, dose: 5.0 micrograms/kg/injection, schedule: Q01DX009 (ip), vehicle: saline + alcohol 116 % of control | endpoint: mean survival time, dose: 10.0 micrograms/kg/injection, schedule: Q01DX009 (ip), vehicle: saline + alcohol 119 % of control

CC(=O)[C@H]1CC[C@H]2[C@@H]3CC[C@@H]4CC(=O)CC[C@]4(C)[C@H]3CC[C@]12C
inactive: [4] 96 % of control | [6] 96 % of control | [8] 96 % of control

CC(C)(C)C(=O)CC1(O)C(=O)Nc2cccc(C(F)(F)F)c21 (stereo not drawn)
inactive: endpoint: mean survival time, dose: 100.0 mg/kg/injection, schedule: Q04DX002 (ip), vehicle: saline with Tween-80 102 % of control | endpoint: mean survival time, dose: 200.0 mg/kg/injection, schedule: Q04DX002 (ip), vehicle: saline with Tween-80 109 % of control | endpoint: mean survival time, dose: 400.0 mg/kg/injection, schedule: Q04DX002 (ip), vehicle: saline with Tween-80 102 % of control

CCCCCCCCCCCCCCCCOc1ccccc1CNc1cc(Cl)ccc1Cl
inactive: [3] 102 % of control | [4] 95 % of control | [5] 96 % of control | [6] 95 % of control | [7] 93 % of control | [8] 89 % of control

CCOC(=O)c1cc2c3n(c1=O)CCCC3C(c1ccccn1)OC2=O (stereo not drawn)
inactive: [13] 100 % of control | [14] 107 % of control | [15] 102 % of control

COC(=O)c1ccc(I)c([N+](=O)[O-])c1
inactive: [1] 98 % of control | [3] 102 % of control | [2] 104 % of control | [5] 102 % of control | endpoint: mean survival time, dose: 400.0 mg/kg/injection, schedule: Q01DX001 (ip), vehicle: saline with Tween-80 97 % of control | [7] 103 % of control
